Test results taken from US20050261349A1, “Medicine for prevention or treatment of diabetes” (priority 2004, published 2005).

System: C57BL/KsJ db/db mice
Assay: Hypoglycemic effect of single or combined oral administration in db/db mice (plasma glucose concentration)
Assay type: in vivo, mouse
Conditions: 14th day, 2 hours after oral administration; for Decreasing rate (of plasma glucose concentration vs control group): calculated from group means vs control group; for Plasma glucose concentration: mean±standard deviation for 6 mice, control group 519 ± 69
Experimental: As test animals, C57BL/KsJ db/db mice were used, which were created in Jackson Laboratory (USA) and known as an obesity, hyperlipemia, hyperinsulinemia, and insulin-resistant model (Journal of Clinical Investigation, 85, pp 962-967, 1990). Blood was collected from the orbital venous plexus of each 7-week-old db/db mouse using a heparin-treated capillary tube, and centrifugation was performed to collect plasma. Thereafter, the plasma glucose concentration (Glucose CII-Test Wako (Wako Pure Chemical Industries, Ltd.)), the insulin concentration (Lebis Insulin Kit: for mouse-T (SHIBAYAGI)), and the triglyceride concentration (Triglyceride E-Test Wako (Wako Pure Chemical Industries, Ltd.)) were measured for classification. The classification was performed so that distribution of each measurement item is uniform for each group by block allocation based on many variables in which the plasma glucose concentration is most emphasized using the measured values of the plasma glucose concentration, the body weight, the insulin concentration, and the triglyceride concentration. […] Two hours after the administration, blood was collected from the orbital venous plexus, and the plasma thereof was collected to measure the plasma glucose concentration. […] Each plasma glucose concentration is expressed as mean±standard deviation for 6 mice of each group. Each decreasing rate is calculated from ((mean of plasma glucose concentration of control group)−(mean of plasma glucose concentration of each group))/(mean of plasma glucose concentration of control group)×100, while each relative index is calculated from (mean of plasma glucose concentration of each group)/(mean of plasma glucose concentration of control group).

SMILES | Relative index (mean plasma glucose of group / mean of control group) | Decreasing rate (of plasma glucose concentration vs control group) [%] | Decreasing rate (of plasma glucose concentration vs control group) (listed as sodium 2,2-dichloro-12-(4-chlorophenyl)-dodecanoate) [%] | Plasma glucose concentration [mg/dL] | Decreasing rate (of plasma glucose concentration vs control group) (listed as glibenclamide) [%]
O=C([O-])C(Cl)(Cl)CCCCCCCCCCc1ccc(Cl)cc1.[Na+] [sodium 2,2-dichloro-12-(4-chlorophenyl)-dodecanoate] | 0.49 | 51 | 51 | 253 ± 75 | –
COc1ccc(Cl)cc1C(=O)NCCc1ccc(S(=O)(=O)NC(=O)NC2CCCCC2)cc1 [Glibenclamide] | 0.79 | 21 | – | 412 ± 153 | 21
